Experimental data from PMC7504721, “Targeting the Initiator Protease of the Classical Pathway of Complement Using Fragment-Based Drug Discovery” (Molecules, 2020).

Test system: lectin pathway
Experiment: Lectin pathway-specific ELISA (mannan, C1q-depleted serum, C4b detection)
Assay type: biochemical, human
Details: single dose 500 µM, triplicate, 2% C1q-depleted serum
Experimental: Figure 5 Selectivity and mechanistic analysis of CMP-1611 and CMP-1696. (A) Chemical structure of CMP-1611. (B) Chemical structure of CMP-1696. (C) Dose-dependent inhibition by CMP-1611 and CMP-1696 in a classical pathway-specific ELISA. Data were fit with GraphPad Prism using non-linear regression with a log(inhibitor) vs. response model. […] (D) Complement pathway selectivity of CMP-1611 and CMP-1696. Compounds were assessed for their ability to inhibit activation of complement via the lectin and alternative pathways using single doses of 500 µM compound in triplicate. To ensure only lectin pathway activation, 2% (v/v) C1q-depleted serum (CompTech) was used and mannan was used as the activator. To match serum sources and amounts for this assay, the classical pathway assays were repeated here using serum from CompTech at 2% (v/v) final concentration. Alternative pathway activation assays were performed using 20% (v/v) serum (CompTech), alternative pathway buffers, and C3b detection (see Methods and Materials for details). […]
To carry out classical pathway ELISA-based inhibition assays, IgM was dissolved in coating buffer (100 mM Na2CO3/NaHCO3, pH 9.6) to a final concentration of 3 µg/mL and was dispensed into 96-well plates at 100 µL per well. […] The reaction was stopped with 50 µL of 0.16 M sulfuric acid, and the plate was read at 450 nm using an EnSight multimode plate reader (Perkin-Elmer). […]

SMILES	inhibition of lectin pathway activation
CN(C)c1cc(N2CCCC(N)C2)ncn1 (centres unmarked) [CMP-1611]	no effect
COCc1nc(-c2ccc(OC3CNC3)cc2)no1 [CMP-1696]	blocked
